This test addresses T1, IKKα (Homo sapiens, UniProt O15111).
T1 construct: gene CHUK; recombinant IKKα (Invitrogen), described as a monomer
T1 sequence (O15111 1-745): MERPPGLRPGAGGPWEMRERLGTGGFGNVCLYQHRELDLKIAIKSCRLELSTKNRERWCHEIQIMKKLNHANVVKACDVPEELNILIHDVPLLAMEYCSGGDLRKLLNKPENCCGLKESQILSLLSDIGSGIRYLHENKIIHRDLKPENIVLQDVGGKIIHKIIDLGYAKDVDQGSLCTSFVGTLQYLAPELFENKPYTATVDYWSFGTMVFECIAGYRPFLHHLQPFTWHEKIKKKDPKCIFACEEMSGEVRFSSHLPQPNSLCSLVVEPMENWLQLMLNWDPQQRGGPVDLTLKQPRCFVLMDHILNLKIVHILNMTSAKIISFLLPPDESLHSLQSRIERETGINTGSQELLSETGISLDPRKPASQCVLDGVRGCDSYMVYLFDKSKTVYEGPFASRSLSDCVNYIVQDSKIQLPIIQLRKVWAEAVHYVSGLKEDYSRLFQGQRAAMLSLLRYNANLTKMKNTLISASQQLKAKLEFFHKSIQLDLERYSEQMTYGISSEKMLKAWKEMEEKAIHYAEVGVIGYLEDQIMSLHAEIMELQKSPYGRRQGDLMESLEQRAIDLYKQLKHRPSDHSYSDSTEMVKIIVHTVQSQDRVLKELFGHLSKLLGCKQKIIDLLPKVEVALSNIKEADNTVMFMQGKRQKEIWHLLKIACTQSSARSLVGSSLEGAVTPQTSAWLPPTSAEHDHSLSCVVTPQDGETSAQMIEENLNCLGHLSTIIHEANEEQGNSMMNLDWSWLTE
The test is described as follows: in vitro kinase assay with recombinant IKKα and IKKtide, UPLC-MS readout. The class given is biochemical.

Among the data in publication PMC7915277, “Biochemical and Computational Studies of the Interaction between a Glucosamine Derivative, NAPA, and the IKKα Kinase” (International Journal of Molecular Sciences, 2021) are IC50 values, retold here.

`CC(=O)N[C@@H](Cc1ccccc1)C(=O)N[C@@H]1[C@@H](O)[C@H](O)[C@@H](CO)O[C@H]1O` [NAPA, 2-(N-Acetyl)-L-phenylalanylamido-2-deoxy-β -D-glucose]: the IC50 (commonly the concentration that gives 50% inhibition) is 500 ± 86 µM.
